How the values were obtained:
human AR [1] = target: T1, human AR (Homo sapiens, UniProt P10275); assay: cell-based; assay type: cell-based
T1 construct: expressed in transfected cells; host or cells: CV-1 cells (African green monkey kidney fibroblasts), transient calcium phosphate transfection
T1 sequence (P10275 1-920): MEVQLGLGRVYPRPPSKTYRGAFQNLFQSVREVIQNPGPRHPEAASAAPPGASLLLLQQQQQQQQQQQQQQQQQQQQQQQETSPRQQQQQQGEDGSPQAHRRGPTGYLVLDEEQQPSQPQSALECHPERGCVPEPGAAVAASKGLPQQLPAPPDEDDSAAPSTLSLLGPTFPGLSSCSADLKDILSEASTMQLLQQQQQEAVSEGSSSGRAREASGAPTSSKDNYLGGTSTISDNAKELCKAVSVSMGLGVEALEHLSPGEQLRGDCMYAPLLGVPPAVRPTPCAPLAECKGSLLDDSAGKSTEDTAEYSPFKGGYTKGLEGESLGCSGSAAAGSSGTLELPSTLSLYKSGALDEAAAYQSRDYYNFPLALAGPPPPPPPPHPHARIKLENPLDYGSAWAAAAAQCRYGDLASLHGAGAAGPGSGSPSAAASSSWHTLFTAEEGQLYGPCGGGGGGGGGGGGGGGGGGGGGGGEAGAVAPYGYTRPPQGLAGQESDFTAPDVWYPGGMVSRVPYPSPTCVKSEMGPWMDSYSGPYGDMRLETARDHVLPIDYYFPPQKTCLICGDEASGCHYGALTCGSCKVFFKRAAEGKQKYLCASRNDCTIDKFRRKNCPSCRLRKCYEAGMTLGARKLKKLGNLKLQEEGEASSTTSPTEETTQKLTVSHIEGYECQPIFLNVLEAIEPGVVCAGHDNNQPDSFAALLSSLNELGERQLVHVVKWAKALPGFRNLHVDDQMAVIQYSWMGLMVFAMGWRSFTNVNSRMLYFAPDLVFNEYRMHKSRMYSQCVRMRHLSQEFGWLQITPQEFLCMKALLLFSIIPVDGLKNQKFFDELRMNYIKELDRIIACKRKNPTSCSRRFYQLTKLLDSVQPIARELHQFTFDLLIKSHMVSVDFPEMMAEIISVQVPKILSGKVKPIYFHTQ
Text: The co-transfection assay provides a method for identifying functional agonists and partial agonists which mimic, or antagonists which inhibit, the effect of native hormones, and quantifying their activity for responsive IR proteins. In this regard, the co-transfection assay mimics an in vivo system in the laboratory. Importantly, activity in the co-transfection assay correlates very well with known in vivo activity, such that the co-transfection assay functions as a qualitative and quantitative predictor of a tested compounds in vivo pharmacology. See, e.g., T. Berger et al. 41 J. Steroid Biochem. Molec.
(§1) CV-1 cells (African green monkey kidney fibroblasts) were cultured in the presence of Dulbecco's Modified Eagle Medium (DMEM) supplemented with 10% charcoal resinstripped fetal bovine serum then transferred to 96-well microtiter plates one day prior to transfection.
The reporter plasmid, MTV-LUC, contains the cDNA for firefly luciferase (LUC) under control of the mouse mammary tumor virus (MTV) long terminal repeat, a conditional promoter containing an androgen response element. See e.g, Berger et al. supra. In addition, pRS-β-Gal, coding for constitutive expression of E. colβ-galactosidase (β-Gal), was included as an internal control for evaluation of transfection efficiency and compound toxicity.
(§2) Three to four replicates were used for each sample.
(§3) After 40 hours, the cells were washed with PBS, lysed with a Triton X-100-based buffer and assayed for LUC and β-Gal activities using a luminometer or spectrophotometer, respectively. For each replicate, the normalized response (NR) was calculated as: LUC response/β-Gal rate where β-Gal rate = β-Gal•1x10^-5/β-Gal incubation time.

ER [2] = target: T2, ER (Homo sapiens, UniProt P03372); assay: Co-transfection assay, ER agonist mode; assay type: cell-based
T2 construct: expressed in transfected cells; host or cells: CV-1 cells
Method: as §1, §2, §3

GR = target: T3, GR (Homo sapiens, UniProt P04150); assay: cell-based
T3 sequence (P04150 1-777): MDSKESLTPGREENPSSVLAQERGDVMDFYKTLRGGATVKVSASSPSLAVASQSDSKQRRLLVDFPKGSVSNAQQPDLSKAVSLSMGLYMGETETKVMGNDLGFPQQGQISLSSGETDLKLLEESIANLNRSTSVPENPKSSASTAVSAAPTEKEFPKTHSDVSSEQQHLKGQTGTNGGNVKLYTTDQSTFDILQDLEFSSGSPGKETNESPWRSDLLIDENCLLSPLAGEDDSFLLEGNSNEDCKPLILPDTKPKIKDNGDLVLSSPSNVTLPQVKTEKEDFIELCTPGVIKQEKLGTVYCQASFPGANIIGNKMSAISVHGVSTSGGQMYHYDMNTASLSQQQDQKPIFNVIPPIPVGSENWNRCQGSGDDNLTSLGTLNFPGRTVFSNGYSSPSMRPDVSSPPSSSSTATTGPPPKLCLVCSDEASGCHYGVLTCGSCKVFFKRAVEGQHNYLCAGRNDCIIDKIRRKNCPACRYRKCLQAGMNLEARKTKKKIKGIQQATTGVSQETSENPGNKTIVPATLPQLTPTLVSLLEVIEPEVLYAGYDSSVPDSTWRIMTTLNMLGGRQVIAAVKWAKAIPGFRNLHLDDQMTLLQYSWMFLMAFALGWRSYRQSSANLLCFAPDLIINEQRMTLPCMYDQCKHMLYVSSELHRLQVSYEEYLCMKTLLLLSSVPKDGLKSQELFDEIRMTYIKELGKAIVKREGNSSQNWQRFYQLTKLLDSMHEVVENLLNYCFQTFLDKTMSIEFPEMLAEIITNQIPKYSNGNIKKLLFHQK
Method: as §1, §2, §3

human AR [3] = target: T1, human AR; assay: cell-based; assay type: binding
ER [4] = target: T2, ER; assay: Co-transfection assay, ER antagonist mode; assay type: cell-based
Method: as §1, §2, §3

PR [5] = target: T4, PR (Homo sapiens, UniProt P06401); assay: Co-transfection assay, PR agonist mode; assay type: cell-based; design: expressed in transfected cells; host or cells: CV-1 cells
T4 sequence (P06401 1-933): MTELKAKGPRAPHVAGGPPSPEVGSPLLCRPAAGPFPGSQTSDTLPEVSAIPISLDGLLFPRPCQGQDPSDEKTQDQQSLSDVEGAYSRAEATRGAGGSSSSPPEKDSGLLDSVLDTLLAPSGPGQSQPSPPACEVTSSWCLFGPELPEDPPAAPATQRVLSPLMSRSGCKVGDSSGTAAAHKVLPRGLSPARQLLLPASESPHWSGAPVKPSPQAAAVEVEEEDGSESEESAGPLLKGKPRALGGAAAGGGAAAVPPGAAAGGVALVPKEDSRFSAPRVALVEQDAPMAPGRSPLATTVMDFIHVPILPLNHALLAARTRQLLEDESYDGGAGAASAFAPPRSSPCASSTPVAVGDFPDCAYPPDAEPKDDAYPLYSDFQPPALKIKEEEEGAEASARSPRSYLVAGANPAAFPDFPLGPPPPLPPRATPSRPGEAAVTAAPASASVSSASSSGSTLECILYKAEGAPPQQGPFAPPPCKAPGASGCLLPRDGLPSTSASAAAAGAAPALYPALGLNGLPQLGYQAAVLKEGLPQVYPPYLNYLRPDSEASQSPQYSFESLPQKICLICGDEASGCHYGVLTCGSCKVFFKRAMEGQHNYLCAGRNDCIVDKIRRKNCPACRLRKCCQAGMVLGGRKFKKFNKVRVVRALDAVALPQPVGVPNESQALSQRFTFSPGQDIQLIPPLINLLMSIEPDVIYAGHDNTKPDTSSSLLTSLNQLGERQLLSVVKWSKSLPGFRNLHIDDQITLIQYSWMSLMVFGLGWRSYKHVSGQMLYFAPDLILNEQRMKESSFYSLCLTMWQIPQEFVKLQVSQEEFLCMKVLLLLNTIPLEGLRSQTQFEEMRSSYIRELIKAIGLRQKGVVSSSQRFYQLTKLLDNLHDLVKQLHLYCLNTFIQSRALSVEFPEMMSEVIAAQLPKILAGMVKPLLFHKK
Method: as §1, §2, §3

PR [6] = target: T4, PR; assay: cell-based

T2 sequence (P03372 whole entry): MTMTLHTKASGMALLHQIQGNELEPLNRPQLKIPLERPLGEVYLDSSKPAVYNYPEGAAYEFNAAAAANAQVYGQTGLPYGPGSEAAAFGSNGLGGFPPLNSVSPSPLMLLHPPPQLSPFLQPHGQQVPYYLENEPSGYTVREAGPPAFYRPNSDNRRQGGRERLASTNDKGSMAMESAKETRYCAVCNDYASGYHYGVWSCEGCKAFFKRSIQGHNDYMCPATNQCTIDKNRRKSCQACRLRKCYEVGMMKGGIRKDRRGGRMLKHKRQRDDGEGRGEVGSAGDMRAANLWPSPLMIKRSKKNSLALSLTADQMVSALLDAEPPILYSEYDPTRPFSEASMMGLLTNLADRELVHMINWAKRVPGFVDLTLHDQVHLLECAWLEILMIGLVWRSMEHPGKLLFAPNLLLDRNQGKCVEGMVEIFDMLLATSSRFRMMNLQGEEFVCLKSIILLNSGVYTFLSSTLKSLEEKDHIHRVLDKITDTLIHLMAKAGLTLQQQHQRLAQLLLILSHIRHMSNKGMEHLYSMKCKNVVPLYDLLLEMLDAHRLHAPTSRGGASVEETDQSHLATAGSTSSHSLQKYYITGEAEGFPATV

SMILES	AR Antagonist CV-1 Cells Efficacy (%) (human AR [1]; % of maximal inhibition, fixed DHT at EC50, na = not active)	AR agonist/antagonist profile (in words) (human AR [1]; co-transfection assay, summary of Tables 1-2)	AR Agonist CV-1 Cells Efficacy (%) (human AR [1]; percent maximal response relative to reference agonist DHT, na = not active)	EC50 (ER [2])	IC50 (GR)	Ki (human AR [3])	IC50 (ER [4])	EC50 (PR [5])	IC50 (PR [6])
CC1(C)CCc2cc3c(C(F)(F)F)c(F)c(=O)[nH]c3cc2N1 [Compound 105, 7-Fluoro-1,2,3,4-tetrahydro-2,2-dimethyl-6-trifluoromethyl-8-pyridono[5,6-g]quinoline]	31%	mixed AR agonists/antagonists	48%	> 10 µM	> 10 µM	0.026 µM	0.034 µM	> 10 µM	–
C[C@]12CCC(=O)C[C@@H]1CC[C@@H]1[C@@H]2CC[C@]2(C)[C@@H](O)CC[C@@H]12 [DHT, dihydrotestosterone, reference compound]	–	–	–	–	–	–	–	> 10 µM	1.8 µM
Cn1c(=O)cc(C(F)(F)F)c2cc3c(cc21)N1CCCC1(C)CC3 (racemic) [Compound 103, (R/S)-6,7,7a,11-Tetrahydro-1,7a-dimethyl-4-trifluoromethyl-2-pyridono[5,6-g]pyrrolidino[1,2-a]quinoline]	–	–	–	> 10 µM	> 10 µM	–	> 10 µM	> 10 µM	–
